Test results as given in PubChem BioAssay (NCI).
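Protocol summary: plate cells (96-well), add compound at 5 concentrations, incubate 48 h, interpolate endpoints linearly. GI50 marks 50% less growth. TGI marks complete inhibition of growth.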

Columns and labels:
Experiment in all cases: NCI anticancer screen, dose series, 48 h
OVCAR-5 ovarian = system: OVCAR-5 ovarian
NCI-H522 lung = system: NCI-H522 lung
UO-31 renal = system: UO-31 renal
CAKI-1 renal = system: CAKI-1 renal
A498 renal = system: A498 renal
HOP-92 NSCLC = system: HOP-92 NSCLC
SR leukemia = system: SR leukemia
SF-295 CNS = system: SF-295 CNS
TK-10 renal = system: TK-10 renal
A549 NSCLC = system: A549 NSCLC
HOP-62 NSCLC = system: HOP-62 NSCLC
NCI/ADR-RES ovarian = system: NCI/ADR-RES ovarian
SK-OV-3 ovarian = system: SK-OV-3 ovarian
HS 578T breast = system: HS 578T breast
MDA-MB-435 = system: MDA-MB-435
SF-268 CNS = system: SF-268 CNS
MOLT-4 leukemia = system: MOLT-4 leukemia
HT29 colon = system: HT29 colon
SK-MEL-28 melanoma = system: SK-MEL-28 melanoma
KM12 colon = system: KM12 colon
MALME-3M melanoma = system: MALME-3M melanoma
NCI-H460 lung = system: NCI-H460 lung
SK-MEL-5 melanoma = system: SK-MEL-5 melanoma
SK-MEL-2 melanoma = system: SK-MEL-2 melanoma
UACC-62 melanoma = system: UACC-62 melanoma
HCT-15 colon = system: HCT-15 colon
MDA-MB-231 breast = system: MDA-MB-231 breast
786-0 renal = system: 786-0 renal
SN12C renal = system: SN12C renal
HCC-2998 colon = system: HCC-2998 colon
OVCAR-3 ovarian = system: OVCAR-3 ovarian
RPMI-8226 leukemia = system: RPMI-8226 leukemia
CCRF-CEM leukemia = system: CCRF-CEM leukemia
NCI-H23 lung = system: NCI-H23 lung
UACC-257 melanoma = system: UACC-257 melanoma
IGROV1 ovarian = system: IGROV1 ovarian
SW-620 colon = system: SW-620 colon
M14 melanoma = system: M14 melanoma
U251 CNS = system: U251 CNS
OVCAR-8 ovarian = system: OVCAR-8 ovarian
SNB-19 CNS = system: SNB-19 CNS
ACHN renal = system: ACHN renal
HCT-116 colon = system: HCT-116 colon
SNB-75 CNS = system: SNB-75 CNS
SF-539 CNS = system: SF-539 CNS
K-562 leukemia = system: K-562 leukemia
COLO 205 colon = system: COLO 205 colon
PC-3 prostate = system: PC-3 prostate
DU-145 prostate = system: DU-145 prostate
MCF7 breast = system: MCF7 breast
EKVX NSCLC = system: EKVX NSCLC
T-47D breast = system: T-47D breast
LOX IMVI melanoma = system: LOX IMVI melanoma
BT-549 breast = system: BT-549 breast
RXF 393 renal = system: RXF 393 renal
NCI-H226 lung = system: NCI-H226 lung
OVCAR-4 ovarian = system: OVCAR-4 ovarian

Q: How did the GI50 (OVCAR-5 ovarian) turn out when `S=c1sc2c(Cl)nc(-c3cccnc3)nc2n1-c1ccccc1` was run?
A: > 100 µM

Q: And the TGI (OVCAR-5 ovarian)?
A: > 100 µM

Q: And the GI50 (NCI-H522 lung)?
A: 1.54 µM

Q: And the TGI (NCI-H522 lung)?
A: 3.1 µM

Q: And the GI50 (UO-31 renal)?
A: 1.64 µM

Q: What about the TGI (UO-31 renal) of the same molecule?
A: 3.33 µM

Q: And the GI50 (CAKI-1 renal)?
A: 1.67 µM

Q: And the TGI (CAKI-1 renal)?
A: 3.14 µM

Q: And the GI50 (A498 renal)?
A: > 100 µM

Q: What about the TGI (A498 renal) of the same molecule?
A: > 100 µM

Q: What about the GI50 (HOP-92 NSCLC) of the same molecule?
A: 3.18 µM

Q: And the TGI (HOP-92 NSCLC)?
A: 30.5 µM

Q: And the GI50 (SR leukemia)?
A: 0.556 µM

Q: And the TGI (SR leukemia)?
A: 4.68 µM

Q: And the GI50 (SF-295 CNS)?
A: > 100 µM

Q: What about the TGI (SF-295 CNS) of the same molecule?
A: > 100 µM

Q: And the GI50 (TK-10 renal)?
A: > 100 µM

Q: What about the TGI (TK-10 renal) of the same molecule?
A: > 100 µM

Q: And the GI50 (A549 NSCLC)?
A: > 100 µM

Q: And the TGI (A549 NSCLC)?
A: > 100 µM

Q: And the GI50 (HOP-62 NSCLC)?
A: 3.27 µM

Q: And the TGI (HOP-62 NSCLC)?
A: > 100 µM

Q: And the GI50 (NCI/ADR-RES ovarian)?
A: 3.05 µM

Q: And the TGI (NCI/ADR-RES ovarian)?
A: > 100 µM

Q: What about the GI50 (SK-OV-3 ovarian) of the same molecule?
A: > 100 µM

Q: And the TGI (SK-OV-3 ovarian)?
A: > 100 µM

Q: And the GI50 (HS 578T breast)?
A: 4.09 µM

Q: And the TGI (HS 578T breast)?
A: > 100 µM

Q: Which results are given for `CC1SC2(CCCCC2)N(NC(=O)c2[nH]c3ccc(Br)cc3c2-c2ccccc2)C1=O` (stereo not drawn)?
A: GI50 (OVCAR-5 ovarian): 58.7 µM; TGI (OVCAR-5 ovarian): > 100 µM; GI50 (MDA-MB-435): 30.1 µM; TGI (MDA-MB-435): > 100 µM; GI50 (NCI-H522 lung): 6.78 µM; TGI (NCI-H522 lung): > 100 µM; GI50 (UO-31 renal): 21.6 µM; TGI (UO-31 renal): > 100 µM; GI50 (SF-268 CNS): 75.6 µM; TGI (SF-268 CNS): > 100 µM; GI50 (MOLT-4 leukemia): 3.95 µM; TGI (MOLT-4 leukemia): > 100 µM; GI50 (HT29 colon): 8.1 µM; TGI (HT29 colon): > 100 µM; GI50 (CAKI-1 renal): 62.5 µM; TGI (CAKI-1 renal): > 100 µM; GI50 (SK-MEL-28 melanoma): 56.2 µM; TGI (SK-MEL-28 melanoma): > 100 µM; GI50 (KM12 colon): 16.1 µM; TGI (KM12 colon): > 100 µM; GI50 (MALME-3M melanoma): 17.2 µM; TGI (MALME-3M melanoma): 59.3 µM; GI50 (NCI-H460 lung): 48.2 µM; TGI (NCI-H460 lung): > 100 µM; GI50 (A498 renal): > 100 µM; TGI (A498 renal): > 100 µM; GI50 (SK-MEL-5 melanoma): > 100 µM; TGI (SK-MEL-5 melanoma): > 100 µM; GI50 (SK-MEL-2 melanoma): > 100 µM; TGI (SK-MEL-2 melanoma): > 100 µM; GI50 (HOP-92 NSCLC): 14.6 µM; TGI (HOP-92 NSCLC): 64.8 µM; GI50 (UACC-62 melanoma): 9.66 µM; TGI (UACC-62 melanoma): > 100 µM; GI50 (HCT-15 colon): > 100 µM; TGI (HCT-15 colon): > 100 µM; GI50 (SF-295 CNS): 10.7 µM; TGI (SF-295 CNS): 46.7 µM; GI50 (MDA-MB-231 breast): 20.4 µM; TGI (MDA-MB-231 breast): 79.6 µM; GI50 (786-0 renal): 17.5 µM; TGI (786-0 renal): 98.4 µM; GI50 (SN12C renal): 4.66 µM; TGI (SN12C renal): 30.6 µM; GI50 (TK-10 renal): 26.2 µM; TGI (TK-10 renal): > 100 µM; GI50 (HCC-2998 colon): > 100 µM; TGI (HCC-2998 colon): > 100 µM; GI50 (OVCAR-3 ovarian): 3.24 µM; TGI (OVCAR-3 ovarian): 20.9 µM; GI50 (RPMI-8226 leukemia): 3.83 µM; TGI (RPMI-8226 leukemia): 30.2 µM; GI50 (A549 NSCLC): 15.7 µM; TGI (A549 NSCLC): > 100 µM; GI50 (CCRF-CEM leukemia): 7 µM; TGI (CCRF-CEM leukemia): > 100 µM; GI50 (NCI-H23 lung): 30.7 µM; TGI (NCI-H23 lung): > 100 µM; GI50 (HOP-62 NSCLC): 37 µM; TGI (HOP-62 NSCLC): > 100 µM; GI50 (UACC-257 melanoma): 23.6 µM; TGI (UACC-257 melanoma): > 100 µM; GI50 (IGROV1 ovarian): 4.02 µM; TGI (IGROV1 ovarian): 28.4 µM; GI50 (SW-620 colon): > 100 µM; TGI (SW-620 colon): > 100 µM; GI50 (M14 melanoma): 64 µM; TGI (M14 melanoma): > 100 µM; GI50 (U251 CNS): 41.3 µM; TGI (U251 CNS): > 100 µM; GI50 (OVCAR-8 ovarian): 17 µM; TGI (OVCAR-8 ovarian): 53.8 µM; GI50 (SNB-19 CNS): 40.8 µM; TGI (SNB-19 CNS): > 100 µM; GI50 (ACHN renal): 61.3 µM; TGI (ACHN renal): > 100 µM; GI50 (SK-OV-3 ovarian): > 100 µM; TGI (SK-OV-3 ovarian): > 100 µM; GI50 (HCT-116 colon): 10.2 µM; TGI (HCT-116 colon): > 100 µM; GI50 (SNB-75 CNS): 22.6 µM; TGI (SNB-75 CNS): 90 µM; GI50 (SF-539 CNS): > 100 µM; TGI (SF-539 CNS): > 100 µM; GI50 (K-562 leukemia): 6.78 µM; TGI (K-562 leukemia): > 100 µM; GI50 (COLO 205 colon): > 100 µM; TGI (COLO 205 colon): > 100 µM; GI50 (PC-3 prostate): 7.45 µM; TGI (PC-3 prostate): 89.2 µM; GI50 (HS 578T breast): 70.7 µM; TGI (HS 578T breast): > 100 µM; GI50 (DU-145 prostate): > 100 µM; TGI (DU-145 prostate): > 100 µM; GI50 (MCF7 breast): 20.5 µM; TGI (MCF7 breast): > 100 µM; GI50 (EKVX NSCLC): > 100 µM; TGI (EKVX NSCLC): > 100 µM; GI50 (T-47D breast): 20.5 µM; TGI (T-47D breast): > 100 µM; GI50 (LOX IMVI melanoma): 92.7 µM; TGI (LOX IMVI melanoma): > 100 µM; GI50 (BT-549 breast): > 100 µM; TGI (BT-549 breast): > 100 µM; GI50 (RXF 393 renal): 13.7 µM; TGI (RXF 393 renal): 69.2 µM; GI50 (NCI-H226 lung): 40.7 µM; TGI (NCI-H226 lung): > 100 µM; GI50 (OVCAR-4 ovarian): 13.2 µM; TGI (OVCAR-4 ovarian): 90.7 µM
